Assay results as given in ChEMBL document CHEMBL1201862, “PubChem BioAssay data set” (2004).
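Protocol summary: plate cells (96-well), add compound at 5 concentrations, incubate 48 h, interpolate endpoints linearly. GI50 = concentration required for 50% inhibition of growth.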 The source made the active and inactive calls. Rule as the data show it: active = GI50 up to about 1.1 µM and inactive = higher.

Legend:
Assay in all cases: NCI tumour cell line growth inhibition, 48 h
786-0 = system: 786-0
A498 = system: A498
A549 = system: A549
ACHN = system: ACHN
CAKI-1 = system: CAKI-1
CCRF-CEM = system: CCRF-CEM
COLO 205 = system: COLO 205
DLD-1 = system: DLD-1
DMS-114 = system: DMS-114
DMS-273 = system: DMS-273
EKVX = system: EKVX
HCC 2998 = system: HCC 2998
HCT-116 = system: HCT-116
HCT-15 = system: HCT-15
HL-60 = system: HL-60
HOP-18 = system: HOP-18
HOP-62 = system: HOP-62
HOP-92 = system: HOP-92
HT-29 = system: HT-29
IGROV-1 = system: IGROV-1
K562 = system: K562
KM-20L2 = system: KM-20L2
KM12 = system: KM12
LOX IMVI = system: LOX IMVI
LXFL 529 = system: LXFL 529
M14 = system: M14
M19-MEL = system: M19-MEL
MOLT-4 = system: MOLT-4
Malme-3M = system: Malme-3M
NCI-H226 = system: NCI-H226
NCI-H23 = system: NCI-H23
NCI-H460 = system: NCI-H460
NCI-H522 = system: NCI-H522
OVCAR-3 = system: OVCAR-3
OVCAR-4 = system: OVCAR-4
OVCAR-5 = system: OVCAR-5
OVCAR-8 = system: OVCAR-8
RPMI-8226 = system: RPMI-8226
RXF 393 = system: RXF 393
SF-268 = system: SF-268
SF-295 = system: SF-295
SF-539 = system: SF-539
SK-MEL-28 = system: SK-MEL-28
SK-MEL-2 = system: SK-MEL-2
SK-MEL-5 = system: SK-MEL-5
SK-OV-3 = system: SK-OV-3
SN12C = system: SN12C
SNB-19 = system: SNB-19
SNB-75 = system: SNB-75
SNB-78 = system: SNB-78
SR = system: SR
SW-620 = system: SW-620
TK-10 = system: TK-10
U-251 = system: U-251
UACC-257 = system: UACC-257
UACC-62 = system: UACC-62
UO-31 = system: UO-31
XF498 = system: XF498

## CCOC(=O)C[C@@H](C)[C@]1(C(=O)OC)CCCC1=O
786-0
  GI50: > 70.6 µM (inactive)
A498
  GI50: > 100 µM (inactive)
A549
  GI50: > 100 µM (inactive)
ACHN
  GI50: > 100 µM (inactive)
CAKI-1
  GI50: > 100 µM (inactive)
CCRF-CEM
  GI50: 44.6 µM (inactive)
COLO 205
  GI50: > 51.8 µM (inactive)
DLD-1
  GI50: > 47.2 µM (inactive)
DMS-114
  GI50: > 44.4 µM (inactive)
DMS-273
  GI50: > 70.6 µM (inactive)
EKVX
  GI50: > 100 µM (inactive)
HCC 2998
  GI50: > 100 µM (inactive)
HCT-116
  GI50: > 41.1 µM (inactive)
HCT-15
  GI50: > 100 µM
HL-60
  GI50: > 100 µM (inactive)
HOP-18
  GI50: > 100 µM (inactive)
HOP-62
  GI50: > 100 µM (inactive)
HOP-92
  GI50: > 100 µM (inactive)
HT-29
  GI50: > 65.8 µM (inactive)
IGROV-1
  GI50: > 100 µM (inactive)
K562
  GI50: > 100 µM (inactive)
KM-20L2
  GI50: > 59.2 µM (inactive)
KM12
  GI50: > 100 µM (inactive)
LOX IMVI
  GI50: > 47.1 µM (inactive)
LXFL 529
  GI50: > 100 µM (inactive)
M14
  GI50: > 100 µM (inactive)
M19-MEL
  GI50: > 100 µM (inactive)
MOLT-4
  GI50: > 100 µM (inactive)
Malme-3M
  GI50: > 100 µM (inactive)
NCI-H226
  GI50: > 100 µM (inactive)
NCI-H23
  GI50: > 71.9 µM (inactive)
NCI-H460
  GI50: > 67 µM (inactive)
NCI-H522
  GI50: > 100 µM (inactive)
OVCAR-3
  GI50: > 100 µM (inactive)
OVCAR-4
  GI50: > 100 µM (inactive)
OVCAR-5
  GI50: > 100 µM (inactive)
OVCAR-8
  GI50: > 100 µM (inactive)
RPMI-8226
  GI50: > 49.3 µM (inactive)
RXF 393
  GI50: > 100 µM (inactive)
SF-268
  GI50: > 90.8 µM (inactive)
SF-295
  GI50: > 100 µM (inactive)
SF-539
  GI50: > 100 µM (inactive)
SK-MEL-28
  GI50: > 100 µM (inactive)
SK-MEL-2
  GI50: > 100 µM (inactive)
SK-MEL-5
  GI50: > 100 µM (inactive)
SK-OV-3
  GI50: > 100 µM (inactive)
SN12C
  GI50: > 100 µM (inactive)
SNB-19
  GI50: > 100 µM (inactive)
SNB-75
  GI50: > 100 µM (inactive)
SNB-78
  GI50: > 100 µM (inactive)
SR
  GI50: 27.9 µM (inactive)
SW-620
  GI50: > 100 µM (inactive)
TK-10
  GI50: > 100 µM (inactive)
U-251
  GI50: > 100 µM (inactive)
UACC-257
  GI50: > 100 µM (inactive)
UACC-62
  GI50: > 100 µM (inactive)
UO-31
  GI50: > 100 µM (inactive)
XF498
  GI50: > 100 µM (inactive)

## CCN(CC)C(=O)Cc1[nH][nH]c(=O)c1C(=O)N(CC)CC
786-0
  GI50: > 100 µM (inactive)
A498
  GI50: > 100 µM (inactive)
A549
  GI50: > 100 µM (inactive)
ACHN
  GI50: > 100 µM (inactive)
CCRF-CEM
  GI50: > 100 µM (inactive)
COLO 205
  GI50: > 100 µM (inactive)
DLD-1
  GI50: > 100 µM (inactive)
DMS-114
  GI50: > 100 µM (inactive)
DMS-273
  GI50: > 100 µM (inactive)
EKVX
  GI50: > 100 µM (inactive)
HCC 2998
  GI50: > 100 µM (inactive)
HCT-116
  GI50: > 100 µM (inactive)
HCT-15
  GI50: > 100 µM
HL-60
  GI50: > 100 µM (inactive)
HOP-18
  GI50: > 100 µM (inactive)
HOP-62
  GI50: > 100 µM (inactive)
HOP-92
  GI50: > 100 µM (inactive)
HT-29
  GI50: > 100 µM (inactive)
IGROV-1
  GI50: > 100 µM (inactive)
K562
  GI50: > 100 µM (inactive)
KM-20L2
  GI50: > 100 µM (inactive)
KM12
  GI50: > 100 µM (inactive)
LOX IMVI
  GI50: > 100 µM (inactive)
LXFL 529
  GI50: > 100 µM (inactive)
M14
  GI50: > 100 µM (inactive)
M19-MEL
  GI50: > 100 µM (inactive)
MOLT-4
  GI50: > 100 µM (inactive)
Malme-3M
  GI50: > 100 µM (inactive)
NCI-H226
  GI50: > 100 µM (inactive)
NCI-H23
  GI50: > 100 µM (inactive)
NCI-H460
  GI50: > 100 µM (inactive)
NCI-H522
  GI50: > 100 µM (inactive)
OVCAR-3
  GI50: > 100 µM (inactive)
OVCAR-4
  GI50: > 100 µM (inactive)
OVCAR-8
  GI50: > 100 µM (inactive)
RPMI-8226
  GI50: > 100 µM (inactive)
RXF 393
  GI50: > 100 µM (inactive)
SF-268
  GI50: > 100 µM (inactive)
SF-295
  GI50: > 100 µM (inactive)
SF-539
  GI50: > 100 µM (inactive)
SK-MEL-28
  GI50: > 100 µM (inactive)
SK-MEL-2
  GI50: > 100 µM (inactive)
SK-OV-3
  GI50: > 100 µM (inactive)
SN12C
  GI50: > 100 µM (inactive)
SNB-19
  GI50: > 100 µM (inactive)
SNB-75
  GI50: > 100 µM (inactive)
SNB-78
  GI50: > 100 µM (inactive)
SR
  GI50: > 100 µM (inactive)
SW-620
  GI50: > 100 µM (inactive)
TK-10
  GI50: > 100 µM (inactive)
U-251
  GI50: > 100 µM (inactive)
UACC-257
  GI50: > 100 µM (inactive)
UACC-62
  GI50: > 100 µM (inactive)
UO-31
  GI50: > 100 µM (inactive)
XF498
  GI50: > 100 µM (inactive)
